Experiments:
whole blood (WB) clot [1] = test: Clot burst pressure (CBP) assay on conditioned whole blood; format: cell-based; details: for CBP normalized to individual donor baseline (times as strong): recalcified 6 mM CaCl2, 37 C 30 min
Description: An exemplary embodiment of the present disclosure was used to obtain test data as follows. Blood from donors (n=7) was collected into 3.2% sodium citrate tubes. Blood was divided and treated to achieve the following conditions for a hypocoagulable state: 0.10, 0.15, and 0.20 USP heparin/mL blood; for a hypercoagulable state, blood was treated with a 1.0 or 2.0 g/L addition of fibrinogen. 2 mm holes were drilled into 6-well polystyrene plates and packing tape was used to cover the bottom. Blood was recalcified with CaCl2 and pipetted into the holes. The plates were incubated at 37 C for 30 minutes to allow for thrombus formation. Tape was removed after incubation. A pressure cap was designed with an inlet for fluid from a syringe pump and an outlet for outflow and was secured in the wells with a watertight seal. Outflow led to a vertical graduated measurement column where pressure was converted from cmH2O to mmHg for data analysis.
The device comprises four primary components as shown in FIG. 1: a syringe pump, a pressure cap, a 6-well plate assembly, and a water column. A Programmable Syringe Pump was programmed to pump a 100 cc syringe at 1 mL/s at a continuous rate. The syringe pump is coupled to a pressure cap assembly.
The pressure cap assembly shown in FIGS. 2 and 3 directs fluid flow directly over a clot and prevents pressure loss to the environment. The cap has two female ports allowing for an inlet connection from the syringe pump and an outlet connecting to the water column. The cap has three legs to avoid direct contact with a clot. An O-Ring (Dash 242) fits in the groove found around the pressure cap ensuring a snug fit in a standard 6-well plate. As fluid enters the pressure cap, it is directed into a compartment where a formed clot is suspended. Backflow fluid rises up a 150 cm water column created from clear PVC pipe marked at 5 cm intervals. All connections used Luer locks and barbed connections to prevent fluid loss.
A 20″×20″ HDPE board was used as the base of the device, which contained the 6-well plate assembly and water column. 4, 2″ screws were used to elevate the 6-well plate assembly to allow for easy visual inspection after trial runs. A single 5/64″ hole was drilled into the centers of each well in a 6-well plate. 220-grit sandpaper was used in a circular manner on the inner surface of the well-plate to provide a sheared surface for platelet adhesion. Clear packing tape was used to cover the holes on the bottom of the plate prior to the start of the assay.
Venipuncture whole blood (WB) was collected from donors (male and female) who were at least 18 years of age and had not taken anticoagulant medication in the past 14 days. Blood was drawn from the antecubital fossa using a 19G needle into a standard blue top 3.2% sodium citrate vacutainer tube. Tubes were placed on a rocker at room temperature prior to use in the assay, but all assay runs were initiated within 30 minutes of blood draw.
WB was conditioned to mimic hyper and hypocoagulable states. RiaSTAP a lyophilized fibrinogen concentrate, was used to generate a hypercoagulable condition. WB was conditioned with a 1.0 mg/mL or 2.0 mg/mL bolus of fibrinogen. Heparin sodium salt (Sigma-Aldrich, OH) was reconstituted and added to WB at 0.10, 0.15, 0.20 USP/mL amounts to generate a hypocoagulable state. 6 mM of CaCl2) was added to each conditioned blood group and a control group to recalcify and promote coagulation.
35 μL of conditioned or control WB was placed in the 5/64″ hole above the packing tape in each well of the 6-well plates. The entire plate was incubated at 37 C for 30 min with the plate lid on. After 30 min, the plate was removed from the incubator and the packing tape on the bottom was removed. The pressure cap was placed in a single well in a spiral manner and an air-tight seal was created with the O-Ring. One port of the pressure cap was connected to the syringe pump and the other port to the vertical water column. […]

whole blood (WB) clot [2] = test: as above; format: cell-based
[3] = Whole Blood w/ Heparin 0.10 USP/mL
[4] = Whole Blood w/ Heparin 0.15 USP/mL
[5] = Whole Blood w/ Heparin 0.20 USP/mL

Heparin sodium salt was tested, and the “Clot Integrity” value (whole blood (WB) clot [1]; [3]) was “Weakened Clot”, the “Difference Between All Groups in CBP” value (whole blood (WB) clot [1]; [3]) was “Yes” and the “Clot Integrity” value (whole blood (WB) clot [1]; [4]) was “Weakened Clot”. The “Difference Between All Groups in CBP” value (whole blood (WB) clot [1]; [4]) was “Yes”, the “Clot Integrity” value (whole blood (WB) clot [1]; [5]) was “Weakened Clot” and the “Difference Between All Groups in CBP” value (whole blood (WB) clot [1]; [5]) was “Yes”. For the same substance, the “Dose dependence of clot strength (CBP)” value (whole blood (WB) clot [1]; between the 0.10 and 0.20 USP heparin/mL group, whole blood) was “dose-dependent weakness”, the Clot formation (whole blood (WB) clot [1]; heparin 0.20-0.10 USP/mL range in whole blood) was “weaker, but stable clot” and the “CBP normalized to individual donor baseline (times as strong)” value (“CBP normalized” for short) (whole blood (WB) clot [1]; whole blood + 0.10 USP heparin/mL) was 0.54±0.19. The “CBP normalized” value (whole blood (WB) clot [1]; whole blood + 0.15 USP heparin/mL) was 0.41±0.17, the “CBP normalized” value (whole blood (WB) clot [1]; whole blood + 0.20 USP heparin/mL) was 0.25±0.02 and the “Clot Integrity” value (whole blood (WB) clot [2]; Whole Blood w/ Heparin 0.25 USP/mL) was “Porous Clot”. For the same substance, the “Clot Integrity” value (whole blood (WB) clot [2]; Whole Blood w/ Heparin 0.35 USP/mL, listed as heparin, sodium salt) was “completely inhibits clot production” and the “Clot Integrity” value (whole blood (WB) clot [2]; Whole Blood w/ Heparin 0.35 USP/mL, sodium salt) was “No Clot Formation”.

Source: patent US20260227379A1, “DEVICES AND METHODS FOR CLOT BURST PRESSURE MEASUREMENT” (THE BOARD OF REGENTS OF THE UNIVERSITY OF TEXAS SYSTEM, priority 2023, published 2026)
